{"source": "patent US20260166182A1", "about": "“CYANINE-BASED FLUOROPHORES” (The General Hospital Corporation, priority 2022, published 2026)", "key": {"LLC and Raw264.7 cells": {"tested_on": "LLC and Raw264.7 cells", "assay": "In vitro inhibition study of SH1 cellular uptake", "format": "cell-based", "settings": "2 μM SH1, 15 min", "procedure": "In vitro inhibition study: LLC and Raw264.7 cells were seeded and incubated at a density of 20,000 cells/plate in a 24-well plate. […] Cells were then incubated with 2 μM of SH1 at 37° C. for 15 min. […] After washing twice with HBSS buffer, the cells were imaged using a Nikon TE2000 epifluorescence microscope (TE2000U; Nikon) equipped with a 75-W xenon light source, NIR-compatible optics, and a NIR-compatible 4×, 10×, and 20× Plan Fluor objective lens (Nikon, Melville, NY) with a customized filter set."}, "[1]": {"tested_on": "lung carcinoma (LLC cell line)", "assay": "NIR-II fluorescence imaging of subcutaneous LLC tumor-bearing C57BL/6 mice", "format": "in vivo, mouse", "source_text": "General NIR-II fluorescence imaging: A 640×512-pixel InGaAs camera (Ninox640, Raptor Photonics) and macro zoom lens (0-10×; Navitar Zoom 7000 with SWIR coating) along with 900, 1070, 1100, and 1200 nm long-pass (LP) filters from either Thorlab or Edmund optics were used to collect the NIR-II signal. InGaAs camera played a role as an open-air imaging system along with the support of the FLARE system. An 808 nm fiber-coupled diode laser ([…] at the sample) was used as an excitation source. Data acquisition was done using in-house developed software. […] Mice were imaged with intact skin using InGaAs camera. At least 3 mice were analyzed for each sample. Tumor-bearing mouse models: Animals were housed in an AAALAC-certified facility and were studied under the protocols approved by the MGH IACUC (2016N000136). Mice were maintained under anesthesia with isoflurane and oxygen during the experiment. To establish the various tumor-bearing mouse models including lung carcinoma, pancreatic ductal adenocarcinoma (PDAC), and triple negative breast adenocarcinoma, eight-week-old C57BL/6 mice (Taconic Farms, Germantown, NY) were subcutaneously injected with 2×10^5 LLC, Pan02, and E0771 cells suspended in DMEM/Matrigel (100 μL, 50 v/v %) in the flank region, respectively. Female C57BL/6 mice were used for the breast cancer (E0771) model, otherwise male mice were used. […] Statistical analysis: The fluorescence and background intensities of a region of interest over each tissue were quantified using customized imaging software and ImageJ v1.48 (National Institutes of Health, Bethesda, MD). The signal-to-background ratio (SBR) was calculated as SBR=fluorescence/background, where background was the fluorescence intensity of muscle. Data were reported as mean±s.e.m. with a minimum of three biological replicates. Student's t-test statistical analysis was performed to evaluate the significance of the experimental data. The differences among groups were determined using one-way ANOVA analysis to assess the statistical differences among more than two groups. […] The data was indicated with *p<0.05, ** p<0.01, *** p<0.001, and **** p<0.0001."}, "[2]": {"assay": "Optical study in EtOH, DMSO, HEPES and PBS", "format": "physicochemical", "procedure": "(§1) Optical Study, Photostability, Physicochemical Properties, and DFT Calculation: 1 mM stock solution in DMSO of the synthesized fluorophores was prepared before starting any spectral measurement. Optical properties for the synthesized fluorophores were measured in four different solvents (EtOH, DMSO, HEPES, and PBS). Absorbance spectra were measured in a Varian Cary 50 absorbance spectrophotometer (190-1100 nm). Fluorescence emission and photostability were measured and emission spectra were recorded on a Shimadzu RF-5301PC spectrofluorometer. Physicochemical properties (Log D, molecular mass, TPSA, H bond D/A, polarizability, molecular volume, and rotatable bonds) were predicted by ChemAxon (JChem plugin). Theoretical calculations of frontier molecular orbitals (FMOs) for the optimized structures of selected fluorophores were calculated based on DFT calculations at the B3LYP/6-311G(d,p) level.\nIn vivo success of a contrast agent can depend on the absorption and emission profiles, molar extinction coefficient, quantum yield, molecular brightness, physicochemical properties, and photochemical stability. Different types of polymethine bridges can have an impact on the structural geometry of the fluorophores and the absorption and emission profiles. Optical properties were measured in polar protic EtOH, polar aprotic DMSO, and two buffer solutions, phosphate-buffered saline (PBS, PH ˜7.4) and 4-(2-hydroxyethyl)-1-piperazine-ethanesulfonic acid (HEPES, PH ˜7.4). Organic solvents such as ethanol (EtOH) and dimethyl sulfoxide (DMSO) are often used in spectroscopic experiments to observe the absorption and emission maximum, whereas buffer solvents PBS and HEPES were used to mimic the biological environment, as these synthesized fluorophores are intended to be used in bioimaging. The absorbance profiles of these fluorophores were recorded at various concentrations (0.8, 1.6, 2.4, 3.2, 4.0 μM) and the absorbance values obtained were plotted against each of the concentrations. […] Fluorophores 18-21 refer to the labels in Example 4 and FIG. 7D.\nThe molar extinction coefficient is an intrinsic property of any fluorophore and can be important for high image resolution. […] These properties vary with the structure change and are difficult to predict beforehand. The optical properties of the synthesized fluorophores were measured in various media. All measurements were performed in 2 different organic solvents (EtOH and DMSO) and 2 different buffer (HEPES and PBS), and ICG was used as a reference (ΦICG=0.043)."}, "[3]": {"assay": "In vivo biodistribution study of NIR fluorophores in CD-1 mice", "set-up": "species or system mouse", "settings": "25 nmol intravenous, 4 h post-injection", "procedure": "In Vivo Biodistribution Study of NIR Fluorophores: Under the supervision of the MGH IACUC, animals were housed in an AAALAC-certified facility and studied according to institutional protocol #2016N000136. In preparation for injection, CD-1 mice (25-30 g, 6 weeks, Charles River Laboratories, Wilmington, MA) were anesthetized with isoflurane and oxygen. A 10 mM stock solution of NIR fluorophores was prepared in DMSO, and 25 nmol of each molecule was diluted in BSA-containing saline (5 wt/v %) for intraoperative imaging. After 4 h post-injection, mice were imaged. For each experiment, camera exposure time and image normalization were held constant.\nQuantitative Analysis: The fluorescence and background intensity of a region of interest (ROI) over each tissue was quantified using ImageJ software (NIH, Bethesda, MD) version 1.45q. The signal-to-background ratio (SBR) was calculated as SBR=fluorescence/background, where background is the signal intensity of neighboring tissues such as muscle. All NIR fluorescence images for a particular fluorophore were normalized identically for all conditions of an experiment."}, "[4]": {"assay": "Photostability under xenon lamp irradiation", "format": "physicochemical", "settings": "2 h", "procedure": "as §1\nIn consideration of theranostic (therapeutics and diagnostic) applications, NIR cyanine fluorophores are synthesized for fluorescence imaging, photodynamic therapy (PDT), photothermal therapy (PTT), optoacoustic imaging, and cancer immunotherapy. One of the approaches before using these fluorophores in those applications is to study their biodistribution and clearance pattern in vivo. […] The power density of 150 W is much higher than the required power for fluorescence imaging, considering that the time it takes for a fluorophore to clear from the background and accumulate in sufficient quantities in the targeted tissues is unknown. […] By considering this, an aliquot of the stock solution (1 mM in DMSO) was diluted in ethanol, and the fluorescence intensity was measured at the excitation wavelength same as their absorption maxima (nm). Photodegradation rates were measured every 20 min intervals for the selected fluorophores based on the % reduced fluorescence intensity starting from 100%. […] The data were collected in every 20 min intervals under continuous irradiation with a xenon lamp at 150 W for 2 h and presented based on the % reduced fluorescence intensity starting from 100%. […]"}}, "note": "“Also recorded” adds a separate entry of the source.", "data": [{"compound": "CCN1/C(=C/c2ccc3ccccc3[n+]2CC)C=Cc2ccccc21.[I-]", "note": "[D22, 1,1′-Diethyl-2,2′-cyanine iodide]", "values": [{"measurement": "effect of inhibitor pretreatment on SH1 cellular uptake", "setting": "LLC and Raw264.7 cells", "value": "Neither bromosulphophthalein, cyclosporin A (both OATP inhibitors), D22 (OCT inhibitor), nor MK-571 (ABC transporter inhibitor) significantly inhibited SH1 uptake"}]}, {"compound": "CN(C)C(=O)CCSC(SCCC(=O)O)c1cccc(/C=C/c2ccc3ccc(Cl)cc3n2)c1", "note": "(stereo not drawn) [MK-571]", "values": [{"measurement": "effect of inhibitor pretreatment on SH1 cellular uptake", "setting": "LLC and Raw264.7 cells", "value": "Neither bromosulphophthalein, cyclosporin A (both OATP inhibitors), D22 (OCT inhibitor), nor MK-571 (ABC transporter inhibitor) significantly inhibited SH1 uptake"}]}, {"compound": "O=C1NC(=NS(=O)(=O)c2cccc3ccccc23)S/C1=C\\c1ccc(Br)cc1", "note": "[Pitstop 2]", "values": [{"measurement": "effect of inhibitor pretreatment on SH1 cellular uptake", "setting": "LLC and Raw264.7 cells", "value": "did not result in any appreciable change in cellular uptake"}]}, {"compound": "CCCCN1/C(=C/C=C/C=C/C=C/C2=[N+](CCCC)c3ccc(Cl)cc3C2(C)C)C(C)(C)c2cc(Cl)ccc21", "note": "[SH2, 1-butyl-2-((1E,3E,5E)-7-((E)-1-butyl-5-chloro-3,3-dimethylindolin-2-ylidene)hepta-1,3,5-trien-1-yl)-5-chloro-3,3-dimethyl-3H-indol-1-ium iodide]", "values": [{"measurement": "NIR-II signal intensity of abdominal and dissected tumor image", "setting": "[1]; NIR-II region", "value": "low signal intensity in NIR-II region"}]}, {"compound": "CCCCN1/C(=C/C=C2\\CCCC(/C=C/C3=[N+](CCCC)c4ccccc4C3(C)C)=C2Cl)C(C)(C)c2ccccc21", "note": "[SH21, 1-butyl-2-((E)-2-((E)-3-(2-((E)-1-butyl-3,3-dimethylindolin-2-ylidene)ethylidene)-2-chlorocyclohex-1-en-1-yl)vinyl)-3,3-dimethyl-3H-indol-1-ium iodide]", "values": [{"measurement": "quantum yield", "setting": "[2]; EtOH", "value": 0.33}, {"measurement": "quantum yield", "setting": "[2]; PBS", "value": 0.01}, {"measurement": "molecular brightness", "setting": "[2]; highest observed", "value": "79,664 cm^−1 M^−1"}, {"measurement": "circulation in the blood stream", "setting": "[1]; 48 h post-injection", "value": "circulating in the blood stream at 48 h post injection"}, {"measurement": "tissue/organ signals", "setting": "[3]", "value": "high background signals; also recorded: higher background tissue uptake"}]}, {"compound": "O=C1OC(c2ccc(O)c(S(=O)(=O)O)c2)(c2ccc(O)c(S(=O)(=O)O)c2)c2c(Br)c(Br)c(Br)c(Br)c21", "note": "[bromosulphophthalein, bromsulphthalein]", "values": [{"measurement": "effect of inhibitor pretreatment on SH1 cellular uptake", "setting": "LLC and Raw264.7 cells", "value": "Neither bromosulphophthalein, cyclosporin A (both OATP inhibitors), D22 (OCT inhibitor), nor MK-571 (ABC transporter inhibitor) significantly inhibited SH1 uptake"}]}, {"compound": "O=C(N/N=C/c1cc(O)c(O)cc1O)c1cc2ccccc2cc1O", "note": "[dingo 4a]", "values": [{"measurement": "effect of inhibitor pretreatment on SH1 cellular uptake", "setting": "LLC and Raw264.7 cells", "value": "significantly inhibited the internalization"}]}, {"compound": "CC1(C)C(/C=C/C2=C(Cl)C(=C/C=C3/N(CCCc4ccccc4)c4ccc(Cl)cc4C3(C)C)/CCC2)=[N+](CCCc2ccccc2)c2ccc(Cl)cc21.[Br-]", "note": "[fluorophore 19, 5-Chloro-2-((E)-2-((E)-2-chloro-3-(2-((E)-5-chloro-3,3-dimethyl-1-(3-phenylpropyl)indolin-2-ylidene)ethylidene)cyclohex-1-en-1-yl)vinyl)-3,3-dimethyl-1-(3-phenylpropyl)-3H-indol-1-ium Bromide]", "values": [{"measurement": "emission wavelength", "setting": "[2]; DMSO", "value": 817, "unit": "nm"}, {"measurement": "photodegradation (% reduced fluorescence intensity)", "setting": "[4]", "value": "7-12%"}]}, {"compound": "CCCCN1/C(=C/C=C2\\CCCC(/C=C/C3=[N+](CCCC)c4ccc(Br)cc4C3(C)C)=C2Cl)C(C)(C)c2cc(Br)ccc21.[I-]", "note": "[fluorophore 20, 5-Bromo-2-((E)-2-((E)-3-(2-((E)-5-bromo-1-butyl-3,3-dimethylindolin-2-ylidene)ethylidene)-2-chlorocyclohex-1-en-1-yl)vinyl)-1-butyl-3,3-dimethyl-3H-indol-1-ium Iodide]", "values": [{"measurement": "quantum yield", "setting": "[2]; PBS", "value": 0.01}, {"measurement": "tissue/organ signals", "setting": "[3]", "value": "high signals in the primary and secondary lymphoid tissues"}]}]}
